Legend:
[1] = test system: T84 intestinal epithelial cells; assay: fMLP-induced PMN migration after LXA4 exposure of T84 epithelial monolayers; format: cell-based, human
Experimental: Lipoxins Synthetic LXA4, LXB4, and 11-trans-LXA4 were obtained from Cascade Biochem Ltd. (Berkshire, United Kingdom). Concentrations were determined from extinction coefficients as described in Sheppard K-A., et al. (1992). Biochimica et Biophysica Acta 1133: 223-234. All eicosanoid stock solutions were stored at −70° C. in […] (American Scientific Products). Eicosanoids were diluted in modified HBSS to a concentration of 1 μM prior to all experiments. PMN or T84 monolayers were exposed to lipoxins at indicated concentrations and allowed to incubate at 37° C. for the indicated period of time. Vehicle controls consisted of dilutions of the solvent (ethanol) equivalent to the highest concentration of lipoxin used in any given experiment (0.01%). […]
Migration was quantitated by assaying for the PMN azurophilic granule marker myeloperoxidase (MPO) as described previously (Parkos C. A., et al. (1991). J. Clin. Invest 88: 1605-1612). Following each migration assay, non-adherent PMN were extensively washed from the surface of the monolayer and PMN cell equivalents (PMN CE), estimated from a standard curve, were assessed as the number of PMN's associated with the monolayer, the number which had completely traversed the monolayer (ie. across the monolayer into the reservoir bath), as well as the total number of transmigrating PMN (the sum of monolayer and reservoir-associated PMN). […]

[2] = test system: human PMN migration across T84 epithelial monolayers; assay: Effect of inhibitors on baseline and LXA4-elicited PMN transepithelial migration, apical-to-basolateral; format: cell-based; conditions: for LXA4-elicited increase in fMLP driven PMN migration over control: LXA4 10 nM

For `CCCCC[C@H](O)/C=C/C=C\C=C\C=C\[C@@H](O)[C@@H](O)CCCC(=O)O` (relative stereo) [LXA4, (5S, 6R, 15S)-trihydroxy-7,9,13-trans-11-cis-eicosatetraenoic acid], the “total number of transmigrating PMN” value ([1]; T84 monolayers incubated with 10 nM LXA4 15 min 37°C, LXA4 not removed, untreated PMN, 1 μM fMLP) was 15.7±1.8 ×10^4 PMN CE/ml, the “total number of transmigrating PMN” value ([1]; T84 monolayers incubated with 10 nM LXA4 15 min, LXA4 removed by washing thrice with HBSS before PMN) was 14.3±1.1 ×10^4 PMN CE/ml and the “LXA4-elicited increase in fMLP driven PMN migration over control” value ([2]; PMN pre-exposed to indomethacin 50 μM) was 61±11%. For the same compound, the “LXA4-elicited increase in fMLP driven PMN migration over control” value ([2]; without indomethacin) was 54±7% and the “LXA4-elicited increase in PMN migration compared to control” value ([2]; LXA4 10 μM (so in the source), pertussis toxin experiment) was 46±3%.
